Data taken from ChEMBL document CHEMBL3774366, “Synthesis, and docking studies of phenylpyrimidine-carboxamide derivatives bearing 1H-pyrrolo[2,3-b]pyridine moiety as c-Met inhibitors” (Bioorg Med Chem, 2016).

What was measured:
MCF7 [1] = tested on: MCF7
Description: (§1) Cytotoxicity against human MCF7 cells after 72 hrs by MTT assay

A549 = assay: Cytotoxicity against human A549 cells after 72 hrs by MTT assay
HepG2 = assay: Cytotoxicity against human HepG2 cells after 72 hrs by MTT assay; format: functional, cell-based; settings: HepG2, 72 h
MCF7 [2] = assay: cells; settings: Homo sapiens, MCF7, 72 h
Description: as §1

[3] = molecular target: Hepatocyte growth factor receptor (Homo sapiens, UniProt P08581); assay: Inhibition of c-Met (unknown origin) using FAM-labeled peptide substrate after 10 mins by mobility shift assay
Sequence of Hepatocyte growth factor receptor (P08581 whole entry): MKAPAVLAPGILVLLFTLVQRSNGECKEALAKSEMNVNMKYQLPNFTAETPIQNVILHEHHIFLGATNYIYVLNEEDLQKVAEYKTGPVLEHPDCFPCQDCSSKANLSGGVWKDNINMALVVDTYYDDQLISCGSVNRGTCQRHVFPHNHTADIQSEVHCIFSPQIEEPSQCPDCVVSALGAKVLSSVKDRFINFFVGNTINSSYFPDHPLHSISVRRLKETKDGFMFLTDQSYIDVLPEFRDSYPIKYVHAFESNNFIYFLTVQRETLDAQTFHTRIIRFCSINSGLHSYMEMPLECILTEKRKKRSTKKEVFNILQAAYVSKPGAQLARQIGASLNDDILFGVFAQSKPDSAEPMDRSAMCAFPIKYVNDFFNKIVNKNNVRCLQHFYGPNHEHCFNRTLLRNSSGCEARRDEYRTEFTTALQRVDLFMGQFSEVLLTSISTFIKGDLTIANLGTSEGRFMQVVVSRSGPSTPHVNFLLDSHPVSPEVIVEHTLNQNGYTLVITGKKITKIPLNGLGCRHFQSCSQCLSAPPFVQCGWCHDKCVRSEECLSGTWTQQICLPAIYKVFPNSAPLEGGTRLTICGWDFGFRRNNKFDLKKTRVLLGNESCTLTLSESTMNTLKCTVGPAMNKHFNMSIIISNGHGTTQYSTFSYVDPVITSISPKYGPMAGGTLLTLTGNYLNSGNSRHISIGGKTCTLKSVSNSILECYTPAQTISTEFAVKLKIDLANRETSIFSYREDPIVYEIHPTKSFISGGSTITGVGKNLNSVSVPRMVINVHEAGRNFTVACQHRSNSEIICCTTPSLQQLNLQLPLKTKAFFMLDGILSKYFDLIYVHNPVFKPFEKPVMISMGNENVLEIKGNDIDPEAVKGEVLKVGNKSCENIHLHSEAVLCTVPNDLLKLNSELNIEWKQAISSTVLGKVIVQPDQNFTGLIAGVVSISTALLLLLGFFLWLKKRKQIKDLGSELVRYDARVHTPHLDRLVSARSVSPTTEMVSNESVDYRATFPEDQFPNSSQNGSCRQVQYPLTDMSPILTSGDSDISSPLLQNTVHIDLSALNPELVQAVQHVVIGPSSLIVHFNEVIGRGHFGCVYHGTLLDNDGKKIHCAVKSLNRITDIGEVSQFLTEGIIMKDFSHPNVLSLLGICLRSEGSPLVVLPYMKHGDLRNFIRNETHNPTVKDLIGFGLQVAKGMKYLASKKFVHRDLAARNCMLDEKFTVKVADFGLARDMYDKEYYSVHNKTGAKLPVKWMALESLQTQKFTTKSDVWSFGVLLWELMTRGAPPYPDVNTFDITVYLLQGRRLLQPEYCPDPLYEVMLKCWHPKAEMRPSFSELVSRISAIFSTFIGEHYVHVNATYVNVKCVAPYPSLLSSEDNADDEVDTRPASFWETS

cells = settings: Homo sapiens, PC-3, 72 h
Description: Cytotoxicity against human PC3 cells after 72 hrs by MTT assay

HeLa = assay: Cytotoxicity against human HeLa cells after 72 hrs by MTT assay; format: functional, cell-based

Structure (SMILES) | IC50 (MCF7 [1]) | IC50 (A549; Homo sapiens, A549, 72 h) | IC50 (HepG2) | IC50 (MCF7 [2]) | IC50 [3] | IC50 (cells) | IC50 (HeLa) | IC50 (A549; a549)
O=C(Nc1ccc(Oc2ccnc3[nH]ccc23)c(F)c1)c1cc(-c2ccc(F)cc2)ncn1 | Not Active | 14.2 µM |  |  |  |  |  | 
O=C(Nc1ccc(Oc2ccnc3[nH]ccc23)c(F)c1)c1nccc(-c2cccc(Cl)c2)n1 |  | 0.45 µM | 9.34 µM | 1.58 µM | 2.2 µM | 1.38 µM | 3.35 µM | 
O=C(Nc1ccc(Oc2ccnc3[nH]ccc23)cc1)c1cc(-c2ccc(Br)cc2)ncn1 |  | 9.87 µM |  | 3.84 µM |  | 2.61 µM |  | 
Cc1ccc(-c2ccnc(C(=O)Nc3ccc(Oc4ccnc5[nH]ccc45)c(F)c3)n2)cc1 |  | 1.15 µM | 16.4 µM | 7.17 µM | 3.4 µM | 0.52 µM | 5.51 µM | 
COc1ccc(-c2cc(C(=O)Nc3ccc(Oc4ccnc5[nH]ccc45)cc3)ncn2)cc1 |  | 4.41 µM |  | 4.45 µM |  | 9.83 µM |  | 
O=C(Nc1ccc(Oc2ccnc3[nH]ccc23)cc1)c1cc(-c2ccc(F)cc2)ncn1 |  | 13 µM |  | 15.9 µM |  |  |  | 
Cc1ccc(-c2cc(C(=O)Nc3ccc(Oc4ccnc5[nH]ccc45)c(F)c3)ncn2)cc1 |  | 8.6 µM |  | 6.73 µM |  | 24.9 µM |  | 
Cc1ccc(-c2cc(C(=O)Nc3ccc(Oc4ccnc5[nH]ccc45)cc3)ncn2)cc1 |  | 5.41 µM |  | 1.62 µM |  | 9.88 µM |  | 
COc1ccc(-c2cc(C(=O)Nc3ccc(Oc4ccnc5[nH]ccc45)c(F)c3)ncn2)cc1 |  | 4.21 µM |  | 10.4 µM |  | 2.57 µM |  | 
O=C(Nc1ccc(Oc2ccnc3[nH]ccc23)c(F)c1)c1cc(-c2ccc(Br)cc2)ncn1 |  | 6.98 µM |  | 10.3 µM |  | 11.3 µM |  | 
O=C(Nc1ccc(Oc2ccnc3[nH]ccc23)cc1)c1cc(-c2ccccc2)ncn1 |  | 0.14 µM | 3.11 µM | 0.02 µM | 0.12 µM | 0.24 µM | 0.4 µM | 
COc1ccc(-c2ccnc(C(=O)Nc3ccc(Oc4ccnc5[nH]ccc45)cc3)n2)cc1 |  | 13.3 µM |  | 12.4 µM |  | 17.3 µM |  | 
O=C(Nc1ccc(Oc2ccnc3[nH]ccc23)c(F)c1)c1nccc(-c2ccc([N+](=O)[O-])cc2)n1 | Not Active | 4.47 µM |  |  |  | 12.1 µM |  | 
O=C(Nc1ccc(Oc2ccnc3[nH]ccc23)c(F)c1)c1cc(-c2ccccc2)ncn1 |  | 0.18 µM | 9.61 µM | 4.64 µM | 0.98 µM | 0.04 µM | 2.86 µM | 
O=C(Nc1ccc(Oc2ccnc3[nH]ccc23)c(F)c1)c1cc(-c2ccc(C(F)(F)F)cc2)ncn1 |  | 2.22 µM |  | 2.84 µM |  | 4.12 µM |  | 
O=C(Nc1ccc(Oc2ccnc3[nH]ccc23)c(F)c1)c1cc(-c2ccc(Cl)cc2)ncn1 |  | 3.36 µM |  | 26.9 µM |  | 3.2 µM |  | 
O=C(Nc1ccc(Oc2ccnc3[nH]ccc23)cc1)c1nccc(-c2ccc(Cl)cc2)n1 | Not Active | 22.4 µM |  |  |  |  |  | 
O=C(Nc1ccc(Oc2ccnc3[nH]ccc23)c(F)c1)c1nccc(-c2ccc(Cl)cc2)n1 |  | 8.94 µM |  | 9.66 µM |  | 14.6 µM |  | 
O=C(Nc1ccc(Oc2ccnc3[nH]ccc23)cc1)c1nccc(-c2ccc(F)cc2)n1 | Not Active |  |  |  |  |  |  | Not Active
Cc1ccc(-c2ccnc(C(=O)Nc3ccc(Oc4ccnc5[nH]ccc45)cc3)n2)cc1 |  | 2.38 µM |  | 6.41 µM |  | 6.14 µM |  | 
COc1ccc(-c2ccnc(C(=O)Nc3ccc(Oc4ccnc5[nH]ccc45)c(F)c3)n2)cc1 |  | 5.43 µM |  | 8.96 µM |  | 14.1 µM |  | 
O=C(Nc1ccc(Oc2ccnc3[nH]ccc23)cc1)c1cc(-c2ccc(C(F)(F)F)cc2)ncn1 |  | 9.38 µM |  | 6.24 µM |  | 2.16 µM |  | 
O=C(Nc1ccc(Oc2ccnc3[nH]ccc23)cc1)c1nccc(-c2cccc(Cl)c2)n1 |  | 4.12 µM |  | 10.2 µM |  | 7.8 µM |  | 
O=C(Nc1ccc(Oc2ccnc3[nH]ccc23)cc1)c1cc(-c2ccc(Cl)cc2)ncn1 |  | 6.53 µM |  | 7.77 µM |  | 15.6 µM |  | 
